Source: the NIST ThermoML archive (doi:10.1016/j.jct.2016.06.018)

Assay: mn = molality of the nth substance listed, in mol/kg
Details: 101 kPa, Liquid, Vibrating tube method

CCCCCCCCCCCC[N+](C)(C)CCOc1ccccc1.[Br-] [Domiphen bromide] + O
mass density [kg/m3]
Details | 293.15 K | 298.15 K | 303.15 K | 308.15 K
m1 = 0.04 | 999.65 | 998.37 | 996.97 | 995.39
m1 = 0.08 | 1000.98 | 999.84 | 998.36 | 996.78
